According to US9708278B2, “Substituted 4-benzyl-3,4-dihydro-2H-benzo[B][1,4]oxazine-2-carboxamide analogs as positive allosteric modulators of muscarinic acetycholine receptor M1” (Vanderbilt University, priority 2013, dated 2017):
Where two headings read alike, the source gives them in different places.

Molecular target: T1, mAChR M1 (UniProt P08482)
T1 sequence (P08482 1-460): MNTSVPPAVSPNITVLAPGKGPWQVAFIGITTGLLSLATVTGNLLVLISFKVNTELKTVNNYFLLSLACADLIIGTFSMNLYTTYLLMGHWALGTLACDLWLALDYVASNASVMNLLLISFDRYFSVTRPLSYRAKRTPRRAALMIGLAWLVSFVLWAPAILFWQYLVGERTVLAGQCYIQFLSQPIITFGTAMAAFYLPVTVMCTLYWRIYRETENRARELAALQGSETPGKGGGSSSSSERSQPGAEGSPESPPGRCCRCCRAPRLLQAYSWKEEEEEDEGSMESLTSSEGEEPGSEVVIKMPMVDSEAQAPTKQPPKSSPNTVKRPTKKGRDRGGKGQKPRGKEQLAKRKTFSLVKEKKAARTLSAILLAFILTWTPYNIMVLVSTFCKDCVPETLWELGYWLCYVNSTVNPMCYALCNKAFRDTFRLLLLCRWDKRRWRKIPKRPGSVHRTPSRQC
Experiment: mAChR M1 cell-based functional assay (calcium mobilization, PAM mode)
Conditions: positive allosteric modulator activity: concentration-dependent increase in the EC20 acetylcholine response, calcium flux in CHO-K1 cells stably expressing mAChR M1
Source text: The calcium mobilization assay was also used to determine “efficacy”.
N-Substituted 3,4-dihydro-benzo[b][1,4]oxazine-2-carboxamide analogs were synthesized as described above. […] The compound number corresponds to the compound numbers used in Table I.

SMILES | EC50 (read-out: EC50) | EC50
COCCNC(=O)C1CN(Cc2ccc(-n3cccn3)cc2)c2ccccc2O1 (stereo not drawn) [Compound B51] | 7.65 µM | 
CC(C)C[C@@H](CO)NC(=O)[C@H]1CN(Cc2ccc(-n3cccn3)cc2)c2ccccc2O1 (single isomer, unassigned) [Compound B20] | 2.07 µM | 
Cc1ccc(NC(=O)C2CN(Cc3ccc(-n4cccn4)cc3)c3ccccc3O2)c(O)c1 (stereo not drawn) [Compound B53] | > 30 µM | 
O=C(Nc1ccccc1F)C1CN(Cc2ccc(-n3cccn3)cc2)c2ccccc2O1 (stereo not drawn) [Compound B55] |  | ≥ 10 µM
O=C(NCCOc1ccccc1F)C1CN(Cc2ccc(-n3cccn3)cc2)c2ccccc2O1 (stereo not drawn) [Compound B38] | > 30 µM | 
O=C(N[C@H]1CCCC[C@@H]1O)C1CN(Cc2ccc(-n3cccn3)cc2)c2ccccc2O1 (single isomer, unassigned) [Compound B29] | 0.573 µM | 
CNC(=O)C1CN(Cc2ccc(-n3cccn3)cc2)c2ccccc2O1 (stereo not drawn) [Compound B21] | 5.36 µM | 
COC(=O)CNC(=O)C1CN(Cc2ccc(-n3cccn3)cc2)c2ccccc2O1 (stereo not drawn) [Compound B13] | 1.44 µM | 
CC(C)(O)CNC(=O)C1CN(Cc2ccc(-n3cccn3)cc2)c2ccccc2O1 (stereo not drawn) [Compound B36] | 3.8 µM | 
O=C(NC1COC1)C1CN(Cc2ccc(-n3cccn3)cc2)c2ccccc2O1 (stereo not drawn) [Compound B3] | ≥ 10 µM | 
COc1cccnc1NC(=O)C1CN(Cc2ccc(-n3cccn3)cc2)c2ccccc2O1 (stereo not drawn) [Compound B48] | 2.4 µM | 
O=C(NCC(O)C(F)(F)F)C1CN(Cc2ccc(-n3cccn3)cc2)c2ccccc2O1 (stereo not drawn) [Compound B46] | 2.28 µM | 
O=C(NCc1ccccn1)C1CN(Cc2ccc(-n3cccn3)cc2)c2ccccc2O1 (stereo not drawn) [Compound B12] | 4.82 µM | 
COc1ccc(CN2CC(C(=O)N[C@H]3CCCC[C@@H]3O)Oc3ccccc32)cc1 (stereo partly drawn) [Compound B5] | ≥ 10 µM | 
Cc1ccccc1NC(=O)C1CN(Cc2ccc(-n3cccn3)cc2)c2ccccc2O1 (stereo not drawn) [Compound B56] | ≥ 10 µM | 
CC(C)(CO)NC(=O)C1CN(Cc2ccc(-n3cccn3)cc2)c2ccccc2O1 (stereo not drawn) [Compound B16] | > 30 µM | 
CC(C)NC(=O)C1CN(Cc2ccc(-n3cccn3)cc2)c2ccccc2O1 (stereo not drawn) [Compound B22] | ≥ 10 µM | 
O=C(Nc1ncccc1O)C1CN(Cc2ccc(-n3cccn3)cc2)c2ccccc2O1 (stereo not drawn) [Compound B2, 4-(4-(1H-pyrazol-1-yl)benzyl)-N-(3-hydroxypyridin-2-yl)-3,4-dihydro-2H-benzo[b][1,4]oxazine-2-carboxamide] | 0.543 µM | 
O=C(N[C@H]1CCCC[C@@H]1O)C1CN(Cc2ccc(C(F)(F)F)nc2)c2ccccc2O1 (stereo partly drawn) [Compound B42] | 4.7 µM | 

SMILES | EC50 (read-out: EC50) | EC50
O=C(N[C@H]1CCCC[C@@H]1O)C1CN(Cc2ccc(Cl)nc2)c2ccccc2O1 (stereo partly drawn) [Compound B8] | 4.21 µM | 
O=C(Nc1ccccn1)C1CN(Cc2ccc(-n3cccn3)cc2)c2ccccc2O1 (stereo not drawn) [Compound B15] | ≥ 10 µM | 
O=C(Nc1ccccc1)C1CN(Cc2ccc(-n3cccn3)cc2)c2ccccc2O1 (stereo not drawn) [Compound B31] | > 30 µM | 
COc1ccc(OCCNC(=O)C2CN(Cc3ccc(-n4cccn4)cc3)c3ccccc3O2)cc1 (stereo not drawn) [Compound B25] | > 30 µM | 
O=C(N[C@@H](CO)[C@H](O)c1ccccc1)C1CN(Cc2ccc(-n3cccn3)cc2)c2ccccc2O1 (stereo partly drawn) [Compound B44] | ≥ 10 µM | 
O=C(NC1CC1)C1CN(Cc2ccc(-n3cccn3)cc2)c2ccccc2O1 (stereo not drawn) [Compound B17] | ≥ 10 µM | 
O=C(N[C@H]1CCCC[C@@H]1O)C1CN(Cc2ccc(C(F)(F)F)nc2)c2cccc(F)c2O1 (stereo partly drawn) [Compound B57, 8-fluoro-N-((1S,2S)-2-hydroxycyclohexyl)-4-((6-(trifluoromethyl)pyridin-3-yl)methyl)-3,4-dihydro-2H-benzo[b][1,4]oxazine-2-carboxamide] | 3.6 µM | 
O=C(NC1CCOC1)C1CN(Cc2ccc(-n3cccn3)cc2)c2ccccc2O1 (stereo not drawn) [Compound B23] | ≥ 10 µM | 
O=C(NCCCN1CCOCC1)C1CN(Cc2ccc(-n3cccn3)cc2)c2ccccc2O1 (stereo not drawn) [Compound B24] | ≥ 10 µM | 
O=C(N[C@H]1CCCC[C@@H]1O)C1CN(Cc2c(F)cc(Br)cc2F)c2ccccc2O1 (stereo partly drawn) [Compound B4, 4-(4-bromo-2,6-difluorobenzyl)-N-((1S,2S)-2-hydroxycyclohexyl)-3,4-dihydro-2H-benzo[b][1,4]oxazine-2-carboxamide] | > 30 µM | 
O=C(Nc1ccn[nH]1)C1CN(Cc2ccc(-n3cccn3)cc2)c2ccccc2O1 (stereo not drawn) [Compound B47] | > 30 µM | 
O=C(NC1CCOCC1)C1CN(Cc2ccc(-n3cccn3)cc2)c2ccccc2O1 (stereo not drawn) [Compound B30] | 4.43 µM | 
O=C(Nc1cccc2cn[nH]c12)C1CN(Cc2ccc(-n3cccn3)cc2)c2ccccc2O1 (stereo not drawn) [Compound B45] | 7.38 µM | 
CC(C)C[C@@H](CO)NC(=O)[C@@H]1CN(Cc2ccc(-n3cccn3)cc2)c2ccccc2O1 (single isomer, unassigned) [Compound B19] | 3.69 µM | 
COCC(C)NC(=O)C1CN(Cc2ccc(-n3cccn3)cc2)c2ccccc2O1 (stereo not drawn) [Compound B43] | ≥ 10 µM | 
CC1(NC(=O)C2CN(Cc3ccc(-n4cccn4)cc3)c3ccccc3O2)COC1 (stereo not drawn) [Compound B34] | > 30 µM | 
O=C(NC1CCCOC1)C1CN(Cc2ccc(-n3cccn3)cc2)c2ccccc2O1 (stereo not drawn) [Compound B37] | ≥ 10 µM | 
C[C@@H](CO)NC(=O)C1CN(Cc2ccc(-n3cccn3)cc2)c2ccccc2O1 (stereo partly drawn) [Compound B35] | 4.66 µM | 
O=C(NCC(F)(F)F)C1CN(Cc2ccc(-n3cccn3)cc2)c2ccccc2O1 (stereo not drawn) [Compound B26] | > 30 µM | 

SMILES | EC50 (read-out: EC50) | EC50
O=C(N[C@H]1CCCC[C@@H]1O)C1CN(Cc2ccc(-n3cccn3)cc2)c2ccccc2O1 (single isomer, unassigned) [Compound B41] | 0.199 µM | 
O=C(NCC(F)F)C1CN(Cc2ccc(-n3cccn3)cc2)c2ccccc2O1 (stereo not drawn) [Compound B52] | ≥ 10 µM | 
O=C(NCCO)C1CN(Cc2ccc(-n3cccn3)cc2)c2ccccc2O1 (stereo not drawn) [Compound B33] | 6.54 µM | 
O=C(NC1CCC1)C1CN(Cc2ccc(-n3cccn3)cc2)c2ccccc2O1 (stereo not drawn) [Compound B27] | 7.66 µM | 
O=C(Nc1ncccc1F)C1CN(Cc2ccc(-n3cccn3)cc2)c2ccccc2O1 (stereo not drawn) [Compound B50] | 2.57 µM | 
Cn1cc(-c2ccc(CN3CC(C(=O)N[C@H]4CCCC[C@@H]4O)Oc4ccccc43)cc2)cn1 (stereo partly drawn) [Compound B7] | > 30 µM | 
O=C(N[C@H]1CCCC[C@@H]1O)C1CN(Cc2ccc(-n3cccn3)cc2)c2ccccc2O1 (stereo partly drawn) [Compound B1, 4-(4-(1H-pyrazol-1-yl)benzyl)-N-((1S,2S)-2-hydroxycyclohexyl)-3,4-dihydro-2H-benzo[b][1,4]oxazine-2-carboxamide] | 0.302 µM | 
COc1ccccc1OCCNC(=O)C1CN(Cc2ccc(-n3cccn3)cc2)c2ccccc2O1 (stereo not drawn) [Compound B39] | > 30 µM | 
O=C(NC1CCCCC1)C1CN(Cc2ccc(-n3cccn3)cc2)c2ccccc2O1 (stereo not drawn) [Compound B18] | ≥ 10 µM | 
NC(=O)C1CN(Cc2ccc(-n3cccn3)cc2)c2ccccc2O1 (stereo not drawn) [Compound B32] | 3.3 µM | 
Cn1cc2c(-c3cc(F)c(CN4CC(C(=O)N[C@H]5CCCC[C@@H]5O)Oc5ccccc54)c(F)c3)cccc2n1 (stereo partly drawn) [Compound B6, 4-(2,6-difluoro-4-(2-methyl-2H-indazol-4-yl)benzyl)-N-((1S,2S)-2-hydroxycyclohexyl)-3,4-dihydro-2H-benzo[b][1,4]oxazine-2-carboxamide] | ≥ 10 µM | 
COc1ccc(CN2C[C@@H](C(=O)N[C@H]3CCCC[C@@H]3O)Oc3ccccc32)cc1 (single isomer, unassigned) [Compound B10] | ≥ 10 µM | 
CC(C)CNC(=O)C1CN(Cc2ccc(-n3cccn3)cc2)c2ccccc2O1 (stereo not drawn) [Compound B11] | 3.56 µM | 
O=C(Nc1ccccc1O)C1CN(Cc2ccc(-n3cccn3)cc2)c2ccccc2O1 (stereo not drawn) [Compound B14] | ≥ 10 µM | 
O=C(Nc1ncc(F)cc1F)C1CN(Cc2ccc(-n3cccn3)cc2)c2ccccc2O1 (stereo not drawn) [Compound B49] | ≥ 10 µM | 
COc1ccc(CN2C[C@H](C(=O)N[C@H]3CCCC[C@@H]3O)Oc3ccccc32)cc1 (single isomer, unassigned) [Compound B9] | 7.75 µM | 
O=C(NCCOc1ccc(F)cc1)C1CN(Cc2ccc(-n3cccn3)cc2)c2ccccc2O1 (stereo not drawn) [Compound B40] | > 30 µM | 
O=C(NC1CCCC1)C1CN(Cc2ccc(-n3cccn3)cc2)c2ccccc2O1 (stereo not drawn) [Compound B28] | ≥ 10 µM | 
O=C(N[C@H]1CCC[C@@H]1O)C1CN(Cc2ccc(-n3cccn3)cc2)c2ccccc2O1 (stereo partly drawn) [Compound B54] | 1.15 µM | 
